Data from paper PMC10373627, “The Stability of Synthetic Cathinones and the Study of Potential Intake Biomarkers in the Biological Material from a Case of 3-CMC Poisoning” (Journal of Analytical Toxicology, 2023).
Where two headings read alike, the source gives them in different places.

Key:
[1] = Stability study in the authentic autopsy blood sample (HPLC-ESI-MS-MS / HPLC-ESI-MS); type: in vitro ADME, human
Method: (§1) Due to the positive result of the identification analysis of the fluid from the Venflon, the biological material (blood and urine) was properly preserved on the same day. In the case of the urine sample, the pH was first measured using a universal indicator paper (pH = 6.0). The blood sample was preserved in a tube with sodium fluoride (NaF) and potassium oxalate (KOx). The biological material was divided into three parts, each with a volume of 1 mL. The first part was stored at 4°C. The second part was acidified with 1 M HCl: 100 µL of HCl was added to 1 mL of the blood sample to obtain pH <7, and 50 µL of HCl was added to 1 mL of the urine sample to obtain pH = 4.2. The third part of the blood and urine samples was stored at −30°C.
(§2) The 200 µL of blank, calibration and quality control (QC) blood samples and the person’s blood and urine samples were enriched with the addition of methanolic IS 4-CEC-d5. For the blood sample, the final IS concentration was 100 ng/mL, and for the urine sample, it was 1,000 ng/mL. A homogenizing element in the form of a 5-mm-diameter stainless steel bead was added to the Eppendorf Tubes containing the samples. The samples were then deproteinized with frozen acetonitrile (400 µL). The samples were then centrifuged, and the supernatant was evaporated in a stream of nitrogen in a 40°C sand bath. The dry residue was dissolved in 100 µL of a mixture of phase A and B solution in a volume ratio of 60:40 (v/v). Mobile phase A is a mixture of 2 mM ammonium formate and 0.2% formic acid solution in water (v/v), and phase B is a mixture of 2 mM ammonium formate and 0.2% formic acid solution in acetonitrile (v/v).
An Agilent 1200 liquid chromatograph (Agilent) equipped with a binary pump (G1312 A) and an autosampler (G1329 A) was used. The chromatographic separation was performed with a Poroshell 120 EC-C18 column (3.0 × 100 mm, particle size 2.7 μm, Agilent). The column was thermostated at 40°C.
The flow of the mobile phases through the chromatographic column occurred at a programmed gradient of mobile phase composition and flow rate (initially, 95% of phase A and 5% of phase B at a flow rate of 0.5 mL/min; then, the proportion of phases was increased linearly to 90% of phase B at a flow rate of 1.0 mL/min at 10 minutes, and the condition was maintained for 2 min). Subsequently, the proportion of phases was increased linearly to 95% of phase B at a flow rate of 1.0 mL/min at 15 minutes. The volume of the samples injected into the chromatographic column was 15 μL.
A 6410 triple-quadrupole mass spectrometer (Agilent) with an electrospray ionization (ESI) source, operated under a positive mode, was used. The operational parameters of the ESI source were as follows: vaporizing temperature 350 °C, pressure of the nebulizing gas 40 psi, flow of the drying gas 9 L/min and capillary potential 3.5 kV. The multiple reaction monitoring (MRM) was employed. The fragmentation parameters of the analyzed compounds are listed in Table I. For the analysis of the selected potential biomarker, dihydro-3-CMC, the total ion current scanning mode was used in the m/z range of 50–650 amu.
While planning the experiment, the limitation was the amount of the biological material secured during the autopsy, as it came from an authentic case. The reference point (day 1) was the extraction of the biological material stored at 4°C for 24 hours using the procedure described earlier. The deproteination was performed the day after the autopsy was conducted, and the biological material was preserved. Subsequently, all the adequately preserved biological material was examined similarly after 2, 4 and 12 months. These intervals were chosen on the basis of the time that elapses between the autopsy and the intervals on which toxicological examinations are most often ordered to the Toxicology Laboratory of the Department of Forensic Medicine in Krakow by the Prosecutor’s Office. […]

[2] = Stability study in the authentic autopsy urine sample (HPLC-ESI-MS-MS / HPLC-ESI-MS); type: in vitro ADME, human
Method: as §1
as §2, with “acetonitrile (v/v). […]” for “acetonitrile (v/v).”
A 6410 triple-quadrupole mass spectrometer (Agilent) with an electrospray ionization (ESI) source, operated under a positive mode, was used. […] The fragmentation parameters of the analyzed compounds are listed in Table I. For the analysis of the selected potential biomarker, dihydro-3-CMC, the total ion current scanning mode was used in the m/z range of 50–650 amu. […]

[3] = GC-MS identification of 3-CMC and its metabolites in the person's urine sample after derivatization; type: in vivo, human; settings: fatal poisoning case; for presence in urine sample: GC-MS after acetylation; for amount present in urine sample: GC-MS after trimethylsilylation
Method: The fluid from the Venflon was acetylated and then analyzed by gas chromatography coupled to mass spectrometry (GC--MS), as described by Synowiec et al. ([8]). Screening analysis was performed using a library developed by Pfleger, Maurer and Weber ([9]), which contains a broad group of compounds, including acetyl or trimethylsilyl derivatives, as well as the authors’ library of SCs ([8]). The analysis was conducted on the day of the autopsy, which was 2 days after the body was discovered.
Following preliminary analytical results indicating the presence of chloromethcathinone (CMC), the liquid from the Venflon further underwent a trimethylsilylation process ([8]) to distinguish the constitutional isomer of CMC.
The same procedure was carried out in the urine sample after SPE, according to the methods described in the authors’ earlier works ([10], [11]).

[4] = parameters: method as in PMID 30557825; settings: cited from earlier work
[5] = parameters: method as in PMID 30557825; settings: cited from earlier work; remark: listed apart in the source
[6] = parameters: method as in PMID 30636991; settings: cited from earlier work
[7] = parameters: method as in PMID 32407550; settings: cited from earlier work
[8] = any given storage conditions (4°C, 4°C + HCl, −30°C), 12 months

CNC(C)C(=O)c1cccc(Cl)c1 (centres unmarked) [3-CMC, 1-(3-chlorophenyl)-2-(methylamino)propan-1-one]
decomposition on storage of the biological material ([1]; 24 hours of storage at 4°C): significant decomposition
time for which the parent substance could be detected in blood sample ([1]; acidified blood sample, ∼4°C): 4 months
time after which detection in blood sample was still possible ([1]; blood stored at −30°C): ≥ 12 months
detection in blood sample ([1]; blood stored at ∼4°C, after 2 months): no longer detected
3-CMC concentration in blood sample ([1]; storage 4°C + HCl, 2 months since autopsy): 580 ng/mL
3-CMC concentration in blood sample ([1]; storage 4°C + HCl, 4 months since autopsy): 150 ng/mL
3-CMC concentration in blood sample ([1]; storage 4°C + HCl, 12 months since autopsy): 0 ng/mL
3-CMC concentration in blood sample ([1]; storage 4°C, 2 months since autopsy): 0 ng/mL
3-CMC concentration in blood sample ([1]; storage 4°C, 4 months since autopsy): 0 ng/mL
3-CMC concentration in blood sample ([1]; storage 4°C, 12 months since autopsy): 0 ng/mL
3-CMC concentration in blood sample ([1]; storage 4°C, 1 day since autopsy (reference point, 24 hours at 4°C)): 880 ng/mL
3-CMC concentration in blood sample ([1]; storage −30°C, 2 months since autopsy): 2,200 ng/mL
3-CMC concentration in blood sample ([1]; storage −30°C, 4 months since autopsy): 2,500 ng/mL
3-CMC concentration in blood sample ([1]; storage −30°C, 12 months since autopsy): 1,100 ng/mL
3-CMC concentration in blood sample ([1]; stored at −30°C (frozen immediately)): > 2,000 ng/mL
stability in urine sample ([2]; after acidification and freezing, investigated period 12 months): stable throughout the investigated time period
detection in urine sample ([2]; urine pH ∼6, 4°C, after 2 months): impossible to detect
presence in urine sample [3]: presence
amount present in urine sample [3]: trace amounts

CNC(C)C(=O)c1ccc(Cl)cc1 (centres unmarked) [4-CMC, 4-chloromethcathinone]
estimated time for complete degradation in blood ([4]; room temperature): 22 days
estimated time for complete degradation in blood ([4]; stored at 5°C (refrigerated), blank blood enriched with 4-CMC): ~4 months
half-life in blood sample ([4]; stored at 5°C): 24 h
estimated time for complete degradation in blood ([4]; stored at −26°C): 11.6 months
estimated time for complete degradation in urine ([5]; 5°C): 4.4 months
estimated time for complete degradation in urine ([5]; 24°C): 24 days
half-life in urine sample ([5]; urine pH = 5): ~2.5 months
estimated time for complete degradation in urine ([5]; −26°C): > 3 years
decrease in concentration in serum sample ([6]; 3 days of storage at 4°C, compared to original extraction): 65%
concentration in serum sample ([6]; 113 days (∼3.7 months) after the original extraction): below the LOQ
concentration in serum sample ([6]; day 0): 11.5 ng/mL
concentration in serum sample ([6]; day 3, storage at 4°C): 4.0 ng/mL
decrease in concentration in blood sample ([7]; 3 days at 23°C): 54%
decrease in concentration in blood sample ([7]; 30 days of storage at 4°C): 63%
total decay time in blood sample ([7]; refrigerated storage, blood from an authentic case): 90 days
stability in blood sample ([7]; stored at −15°C, entire experiment (90 days)): stable

CC(=O)NC(C)C(=O)c1cccc(Cl)c1 (centres unmarked) [N-desmethyl-3-CMC-AC]
presence in urine sample [3]: presence

CC(=O)NC(C)C(OC(C)=O)c1cccc(Cl)c1 (centres unmarked) [N-desmethyl-dihydro-3-CMC-2AC]
presence in urine sample [3]: presence

CNC(C)C(O)c1cccc(Cl)c1 (centres unmarked) [dihydro-3-CMC]
stability in blood sample [1, 8]: high stability
stability in urine sample [2, 8]: high stability
presence in urine sample [3]: mainly
amount present in urine sample [3]: mainly present
